Measured values taken from publication PMC11873239, “A covalent chemical probe for Chikungunya nsP2 cysteine protease with antialphaviral activity and proteome-wide selectivity” (Scientific Reports, 2025).

Key:
[1] = target: CHIKV nsP2pro (Chikungunya virus, UniProt F2YI08); test: biochemical
[2] = test system: CHIKV-nLuc; test: microbe, parasite or virus in culture; assay type: cell-based; conditions: Chikungunya virus, MRC5, 6 h, read-out: EC50 (CHIKV-nLuc replication)
[3] = target: HEK293 cell lysate proteins and CHIKV nsP2 (Homo sapiens, UniProt A8K2U0); assay type: binding
[4] = target: HEK293 cell lysate proteins and CHIKV nsP2 (Homo sapiens, UniProt O15042); assay type: binding
[5] = target: HEK293 cell lysate proteins and CHIKV nsP2 (Homo sapiens, UniProt O75223); assay type: binding
[6] = target: HEK293 cell lysate proteins and CHIKV nsP2 (Homo sapiens, UniProt O75342); assay type: binding
[7] = target: HEK293 cell lysate proteins and CHIKV nsP2 (Homo sapiens, UniProt P04406); assay type: binding
[8] = target: HEK293 cell lysate proteins and CHIKV nsP2 (Homo sapiens, UniProt P05090); assay type: binding
[9] = target: HEK293 cell lysate proteins and CHIKV nsP2 (Homo sapiens, UniProt P05109); assay type: binding
[10] = target: HEK293 cell lysate proteins and CHIKV nsP2 (Homo sapiens, UniProt P06702); assay type: binding
[11] = target: HEK293 cell lysate proteins and CHIKV nsP2 (Homo sapiens, UniProt P07339); assay type: binding
[12] = target: HEK293 cell lysate proteins and CHIKV nsP2 (Homo sapiens, UniProt P13639); assay type: binding
[13] = target: HEK293 cell lysate proteins and CHIKV nsP2 (Homo sapiens, UniProt P25311); assay type: binding
[14] = target: HEK293 cell lysate proteins and CHIKV nsP2 (Homo sapiens, UniProt P26368); assay type: binding
[15] = target: HEK293 cell lysate proteins and CHIKV nsP2 (Homo sapiens, UniProt P27708); assay type: binding
[16] = target: HEK293 cell lysate proteins and CHIKV nsP2 (Homo sapiens, UniProt P46013); assay type: binding
[17] = target: HEK293 cell lysate proteins and CHIKV nsP2 (Homo sapiens, UniProt P46821); assay type: binding
[18] = target: HEK293 cell lysate proteins and CHIKV nsP2 (Homo sapiens, UniProt Q08554); assay type: binding
[19] = target: HEK293 cell lysate proteins and CHIKV nsP2 (Homo sapiens, UniProt Q14151); assay type: binding
[20] = target: HEK293 cell lysate proteins and CHIKV nsP2 (Homo sapiens, UniProt Q14241); assay type: binding
[21] = target: HEK293 cell lysate proteins and CHIKV nsP2 (Homo sapiens, UniProt Q7L014); assay type: binding
[22] = target: HEK293 cell lysate proteins and CHIKV nsP2 (Homo sapiens, UniProt Q86UP2); assay type: binding
[23] = target: HEK293 cell lysate proteins and CHIKV nsP2 (Homo sapiens, UniProt Q8NI27); assay type: binding
[24] = target: HEK293 cell lysate proteins and CHIKV nsP2 (Homo sapiens, UniProt Q8TEQ6); assay type: binding
[25] = target: HEK293 cell lysate proteins and CHIKV nsP2 (Homo sapiens, UniProt Q92616); assay type: binding
[26] = target: HEK293 cell lysate proteins and CHIKV nsP2 (Homo sapiens, UniProt Q99549); assay type: binding
[27] = target: HEK293 cell lysate proteins and CHIKV nsP2 (Homo sapiens, UniProt Q9NYF8); assay type: binding
[28] = target: HEK293 cell lysate proteins and CHIKV nsP2 (Homo sapiens, UniProt Q9UHB7); assay type: binding
[29] = target: HEK293 cell lysate proteins and CHIKV nsP2 (Homo sapiens, UniProt Q9UKV3); assay type: binding
Chain of HEK293 cell lysate proteins and CHIKV nsP2 (Homo sapiens, UniProt Q9UKV3) (Q9UKV3 whole entry): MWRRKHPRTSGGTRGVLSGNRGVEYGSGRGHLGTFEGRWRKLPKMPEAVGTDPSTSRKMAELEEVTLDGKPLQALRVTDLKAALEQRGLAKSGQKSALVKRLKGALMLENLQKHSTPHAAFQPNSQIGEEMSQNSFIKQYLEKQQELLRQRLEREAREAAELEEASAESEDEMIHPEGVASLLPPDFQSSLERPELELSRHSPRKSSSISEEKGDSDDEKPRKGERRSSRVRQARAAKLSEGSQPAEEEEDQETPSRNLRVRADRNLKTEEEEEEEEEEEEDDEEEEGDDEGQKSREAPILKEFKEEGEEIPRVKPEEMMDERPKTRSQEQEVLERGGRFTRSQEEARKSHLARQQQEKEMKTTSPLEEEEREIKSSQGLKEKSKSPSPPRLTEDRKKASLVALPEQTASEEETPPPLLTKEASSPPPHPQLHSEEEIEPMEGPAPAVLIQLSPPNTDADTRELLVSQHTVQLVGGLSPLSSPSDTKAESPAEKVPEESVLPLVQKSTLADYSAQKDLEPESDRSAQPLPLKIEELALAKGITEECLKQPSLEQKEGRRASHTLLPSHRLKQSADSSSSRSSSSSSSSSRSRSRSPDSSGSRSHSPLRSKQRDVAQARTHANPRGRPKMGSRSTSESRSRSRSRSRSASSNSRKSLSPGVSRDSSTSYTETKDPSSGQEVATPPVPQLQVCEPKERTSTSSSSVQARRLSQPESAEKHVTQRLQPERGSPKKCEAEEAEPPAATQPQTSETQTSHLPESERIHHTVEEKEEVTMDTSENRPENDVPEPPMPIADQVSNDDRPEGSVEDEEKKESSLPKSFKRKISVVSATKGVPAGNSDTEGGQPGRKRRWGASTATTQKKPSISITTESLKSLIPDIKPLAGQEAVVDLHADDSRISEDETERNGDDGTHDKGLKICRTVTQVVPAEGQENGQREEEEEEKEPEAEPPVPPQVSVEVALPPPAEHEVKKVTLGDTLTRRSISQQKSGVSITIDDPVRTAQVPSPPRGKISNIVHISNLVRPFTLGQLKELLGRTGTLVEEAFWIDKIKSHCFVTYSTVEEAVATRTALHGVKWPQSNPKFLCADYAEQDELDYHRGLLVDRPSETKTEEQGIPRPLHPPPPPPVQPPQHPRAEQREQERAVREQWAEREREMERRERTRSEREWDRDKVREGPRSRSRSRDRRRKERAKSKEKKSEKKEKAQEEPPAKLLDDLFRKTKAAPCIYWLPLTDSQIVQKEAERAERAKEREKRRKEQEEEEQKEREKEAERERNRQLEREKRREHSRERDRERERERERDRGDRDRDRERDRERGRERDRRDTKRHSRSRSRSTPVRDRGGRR

Chain of HEK293 cell lysate proteins and CHIKV nsP2 (Homo sapiens, UniProt P25311) (P25311 21-298): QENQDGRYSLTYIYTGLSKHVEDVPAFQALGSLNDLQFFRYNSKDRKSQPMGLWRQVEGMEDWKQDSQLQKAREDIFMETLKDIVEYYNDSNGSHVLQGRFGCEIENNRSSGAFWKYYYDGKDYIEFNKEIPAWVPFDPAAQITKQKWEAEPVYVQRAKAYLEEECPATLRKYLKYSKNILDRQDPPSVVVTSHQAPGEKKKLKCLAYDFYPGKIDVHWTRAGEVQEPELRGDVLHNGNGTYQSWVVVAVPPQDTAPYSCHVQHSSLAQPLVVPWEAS
Chain of HEK293 cell lysate proteins and CHIKV nsP2 (Homo sapiens, UniProt P26368) (P26368 whole entry): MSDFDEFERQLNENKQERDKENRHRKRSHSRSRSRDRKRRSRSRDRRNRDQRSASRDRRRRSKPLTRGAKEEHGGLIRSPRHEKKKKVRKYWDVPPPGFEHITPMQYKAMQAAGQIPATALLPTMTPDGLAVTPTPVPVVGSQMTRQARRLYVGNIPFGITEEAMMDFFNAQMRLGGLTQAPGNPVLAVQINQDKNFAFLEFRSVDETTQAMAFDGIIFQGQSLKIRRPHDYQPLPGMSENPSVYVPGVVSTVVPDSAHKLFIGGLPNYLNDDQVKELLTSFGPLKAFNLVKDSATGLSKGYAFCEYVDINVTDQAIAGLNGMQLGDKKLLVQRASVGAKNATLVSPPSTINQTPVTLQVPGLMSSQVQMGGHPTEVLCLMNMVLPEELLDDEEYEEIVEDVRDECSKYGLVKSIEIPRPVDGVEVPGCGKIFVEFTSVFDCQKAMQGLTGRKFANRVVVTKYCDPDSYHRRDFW
Chain of HEK293 cell lysate proteins and CHIKV nsP2 (Homo sapiens, UniProt P06702) (P06702 whole entry): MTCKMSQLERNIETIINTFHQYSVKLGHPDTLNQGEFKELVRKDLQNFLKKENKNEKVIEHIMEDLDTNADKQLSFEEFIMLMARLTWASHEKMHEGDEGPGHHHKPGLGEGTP
Chain of HEK293 cell lysate proteins and CHIKV nsP2 (Homo sapiens, UniProt A8K2U0) (A8K2U0 18-1454): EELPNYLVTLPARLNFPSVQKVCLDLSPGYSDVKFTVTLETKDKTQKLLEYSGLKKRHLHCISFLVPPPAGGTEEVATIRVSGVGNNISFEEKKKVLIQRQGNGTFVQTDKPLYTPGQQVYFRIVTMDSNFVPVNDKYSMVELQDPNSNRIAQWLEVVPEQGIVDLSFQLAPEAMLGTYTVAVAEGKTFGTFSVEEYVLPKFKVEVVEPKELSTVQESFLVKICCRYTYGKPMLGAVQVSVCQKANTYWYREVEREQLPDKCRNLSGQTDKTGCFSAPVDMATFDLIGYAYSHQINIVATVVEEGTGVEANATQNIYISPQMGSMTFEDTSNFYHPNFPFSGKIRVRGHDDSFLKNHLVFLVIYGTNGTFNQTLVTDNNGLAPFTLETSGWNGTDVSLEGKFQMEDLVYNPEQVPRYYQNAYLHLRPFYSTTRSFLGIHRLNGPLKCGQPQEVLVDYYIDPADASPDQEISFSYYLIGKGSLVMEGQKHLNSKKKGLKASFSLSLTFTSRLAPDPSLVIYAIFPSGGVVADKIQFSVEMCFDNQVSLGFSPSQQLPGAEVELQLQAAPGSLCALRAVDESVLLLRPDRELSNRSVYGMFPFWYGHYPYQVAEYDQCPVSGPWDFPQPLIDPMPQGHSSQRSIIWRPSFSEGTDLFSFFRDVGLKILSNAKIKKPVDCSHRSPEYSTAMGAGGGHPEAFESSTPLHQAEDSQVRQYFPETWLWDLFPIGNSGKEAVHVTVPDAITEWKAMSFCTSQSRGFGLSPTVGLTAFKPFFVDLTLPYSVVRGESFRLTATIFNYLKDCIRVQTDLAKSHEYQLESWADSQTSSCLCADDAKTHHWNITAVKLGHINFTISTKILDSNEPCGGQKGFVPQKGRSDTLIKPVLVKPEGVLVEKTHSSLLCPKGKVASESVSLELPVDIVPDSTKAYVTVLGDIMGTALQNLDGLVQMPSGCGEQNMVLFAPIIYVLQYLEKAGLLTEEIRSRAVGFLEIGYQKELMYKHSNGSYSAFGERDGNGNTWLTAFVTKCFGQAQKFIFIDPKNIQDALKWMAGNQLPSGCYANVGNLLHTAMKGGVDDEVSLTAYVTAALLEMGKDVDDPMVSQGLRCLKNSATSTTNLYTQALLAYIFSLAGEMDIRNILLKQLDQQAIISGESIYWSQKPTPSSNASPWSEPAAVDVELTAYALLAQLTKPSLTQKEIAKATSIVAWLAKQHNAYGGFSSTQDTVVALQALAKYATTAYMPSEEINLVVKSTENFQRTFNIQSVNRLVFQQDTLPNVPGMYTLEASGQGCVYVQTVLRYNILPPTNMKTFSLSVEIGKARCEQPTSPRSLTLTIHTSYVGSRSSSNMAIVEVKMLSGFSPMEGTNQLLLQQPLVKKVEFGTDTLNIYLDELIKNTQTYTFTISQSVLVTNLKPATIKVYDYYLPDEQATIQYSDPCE
Chain of HEK293 cell lysate proteins and CHIKV nsP2 (Homo sapiens, UniProt P04406) (P04406 whole entry): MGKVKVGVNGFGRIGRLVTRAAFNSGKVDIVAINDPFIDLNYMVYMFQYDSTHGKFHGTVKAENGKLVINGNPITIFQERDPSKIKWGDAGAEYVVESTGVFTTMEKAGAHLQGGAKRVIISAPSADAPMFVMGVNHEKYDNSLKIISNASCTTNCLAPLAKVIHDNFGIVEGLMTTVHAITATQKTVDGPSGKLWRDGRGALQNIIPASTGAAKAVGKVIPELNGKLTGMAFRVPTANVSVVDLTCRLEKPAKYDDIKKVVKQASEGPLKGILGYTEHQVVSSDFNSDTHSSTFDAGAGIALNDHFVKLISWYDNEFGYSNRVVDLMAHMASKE
Chain of HEK293 cell lysate proteins and CHIKV nsP2 (Homo sapiens, UniProt Q9NYF8) (Q9NYF8 whole entry): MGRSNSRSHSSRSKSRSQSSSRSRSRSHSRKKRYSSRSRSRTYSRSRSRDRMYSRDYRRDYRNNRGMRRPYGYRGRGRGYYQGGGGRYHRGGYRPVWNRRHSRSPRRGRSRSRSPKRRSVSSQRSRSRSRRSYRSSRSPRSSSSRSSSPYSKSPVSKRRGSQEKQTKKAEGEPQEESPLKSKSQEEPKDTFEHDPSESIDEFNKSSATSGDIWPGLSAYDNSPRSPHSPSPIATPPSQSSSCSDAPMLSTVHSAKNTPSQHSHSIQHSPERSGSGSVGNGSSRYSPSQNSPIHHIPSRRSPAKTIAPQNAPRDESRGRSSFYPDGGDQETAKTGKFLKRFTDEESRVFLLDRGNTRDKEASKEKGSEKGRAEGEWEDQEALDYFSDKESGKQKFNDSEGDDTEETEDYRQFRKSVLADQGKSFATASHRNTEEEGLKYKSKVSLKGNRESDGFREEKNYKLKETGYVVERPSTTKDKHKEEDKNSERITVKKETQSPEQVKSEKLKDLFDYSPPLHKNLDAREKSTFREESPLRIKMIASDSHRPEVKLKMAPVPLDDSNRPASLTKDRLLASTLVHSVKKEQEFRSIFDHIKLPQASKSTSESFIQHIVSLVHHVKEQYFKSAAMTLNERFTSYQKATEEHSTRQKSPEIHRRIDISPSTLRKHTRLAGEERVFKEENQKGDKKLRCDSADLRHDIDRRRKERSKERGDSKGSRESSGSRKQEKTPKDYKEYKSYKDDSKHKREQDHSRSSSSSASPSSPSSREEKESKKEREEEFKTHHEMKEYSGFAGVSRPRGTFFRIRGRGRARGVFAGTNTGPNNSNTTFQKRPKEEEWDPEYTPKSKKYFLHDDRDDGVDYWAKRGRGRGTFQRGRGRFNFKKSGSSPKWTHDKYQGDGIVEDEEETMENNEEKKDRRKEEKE
Chain of HEK293 cell lysate proteins and CHIKV nsP2 (Homo sapiens, UniProt P05109) (P05109 whole entry): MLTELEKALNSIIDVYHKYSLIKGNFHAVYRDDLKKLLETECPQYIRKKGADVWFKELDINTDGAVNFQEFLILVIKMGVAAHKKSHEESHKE

Question: What does the source list for `C#CCOc1ccccc1-c1cc(C(=O)NC/C=C/S(C)(=O)=O)on1` [VS, (E)-N-(3-(methylsulfonyl)allyl)−3-(2-(prop-2-yn-1-yloxy)phenyl)isoxazole-5-carboxamide]?
Answer: IC50 [1]: 0.065 µM; EC50 [2]: 0.033 µM; Log2 fold change [3]: 1.10; Log2 fold change [4]: 0.06; Log2 fold change [5]: 0.96; Log2 fold change [6]: 2.14; Log2 fold change [7]: 1.78; Log2 fold change [8]: 6.55; Log2 fold change [9]: 1.58; Log2 fold change [10]: 1.63; Log2 fold change [11]: 1.67; Log2 fold change [12]: 1.35; Log2 fold change [13]: 1.43; Log2 fold change [14]: -0.62; Log2 fold change [15]: 3.37; Log2 fold change [16]: 0.64; Log2 fold change [17]: -0.63; Log2 fold change [18]: 0.93; Log2 fold change [19]: 1.50; Log2 fold change [20]: -1.01; Log2 fold change [21]: -0.13; Log2 fold change [22]: 0.34; Log2 fold change [23]: -0.12; Log2 fold change [24]: -0.32; Log2 fold change [25]: -2.86; Log2 fold change [26]: 0.0737; Log2 fold change [27]: -0.75; Log2 fold change [28]: -0.42; Log2 fold change [29]: -1.88
